Experimental data taken from article PMC5238714 (Biochemistry, 2016).

How the values were obtained:
[1] = target: GARFTase; settings: read-out: reported Ki with GARFTase; in vitro assays; cited from earlier work
[2] = target: T1, human GARFTase (formyltransferase domain) (Homo sapiens, UniProt P22102); test: GAR transformylase; assay type: biochemical; settings: ratio of Ki values
T1 sequence (P22102 810-1010 limits assumed): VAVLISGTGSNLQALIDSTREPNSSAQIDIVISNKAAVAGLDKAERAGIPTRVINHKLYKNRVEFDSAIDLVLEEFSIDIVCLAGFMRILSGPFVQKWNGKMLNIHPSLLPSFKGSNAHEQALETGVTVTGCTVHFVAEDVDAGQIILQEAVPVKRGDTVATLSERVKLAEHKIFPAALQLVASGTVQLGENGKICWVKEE

| fold weaker GARFTase inhibition than AGF94 and AGF145 [2] | Structure (SMILES) | Ki [1] |
| --- | --- | --- |
| – | Nc1nc(N)c(CCCC(C(=O)C(F)(F)F)c2ccc(C(=O)N[C@@H](CCC(=O)O)C(=O)O)cc2)c(=O)[nH]1 (some centres unmarked) [10-trifluoroacetyl antifolate, 10-(trifluoroacetyl)-5,10-dideazaacyclic-5,6,7,8-tetrahydrofolic acid] | 15 nM |
| roughly 1.5 fold | Nc1nc2[nH]c(CCCCCCCC(=O)N[C@@H](CCC(=O)O)C(=O)O)cc2c(=O)[nH]1 [AGF147] | – |
